Results taken from patent US20180117047A1, “DRUG FOR PREVENTING AND/OR TREATING DEMENTIA” (NATIONAL UNIVERSITY CORPORATION TOTTORI UNIVERSITY, priority 2015, published 2018).
Where “and” joins values, the source holds several entries; their conditions need not be identical. Equal entries are not always repeated. Entries after “also recorded” stand apart in the source; their conditions may differ.

Legend:
[1] = test system: Tg(APPSWE)2576KhaTg(Prnp-MAPT*P301L)JNPL3HImc Alzheimer's disease model double transgenic mice; experiment: Number and size of senile plaques in cerebrum coronal cut surfaces of Alzheimer's disease model double transgenic mice (HE, Aβ40, Aβ42 staining); format: in vivo, mouse
[2] = test system: Tg(APPSWE)2576KhaTg(Prnp-MAPT*P301L)JNPL3HImc Alzheimer's disease model double transgenic mice; experiment: Number of nerve cells having AT8 immunostaining-positive neurofibrillary tangles in Alzheimer's disease model double transgenic mice; format: in vivo, mouse
[3] = individual mouse, diameter 50 μm or smaller, 5 mg/kg oral every day from one year old, sampled at 730 to 745 days old, 5 mg/kg
[4] = individual mouse, diameter 100 μm or larger, 5 mg/kg oral every day from one year old, sampled at 730 to 745 days old, 5 mg/kg
[5] = individual mouse, diameter between 50 μm and 100 μm, 5 mg/kg oral every day from one year old, sampled at 730 to 745 days old, 5 mg/kg
[6] = individual mouse, 5 mg/kg oral every day from one year old, sampled at 730 to 745 days old, 5 mg/kg

With `N#Cc1cc(-c2nc3c(O)ncnc3s2)ccc1Oc1ccccc1` [compound A, 5-(7-hydroxythiazolo[5,4-d]pyrimidin-2-yl)-2-phenoxy-benzonitrile] the “Large-sized senile plaques in the hippocampus compared with placebo control group (photographs)” value ([1]; HE staining, Aβ40 and Aβ42 immunostaining, FIG. 6 vs FIG. 5) was “clearly fewer”, the “Number of large-sized senile plaques per one cerebrum coronal cut surface” value ([1]; group average±standard deviation, 4 mice, 5 mg/kg oral daily about one year, control 26.9±12.3) was 11.1±5.9 and the “Number of medium-sized senile plaques per one cerebrum coronal cut surface” value ([1]; group average±standard deviation, 4 mice, 5 mg/kg oral daily about one year, control 44.3±14.5) was 30.9±20.5. The “Number of small-sized senile plaques per one cerebrum coronal cut surface” value ([1]; group average±standard deviation, 4 mice, 5 mg/kg oral daily about one year, control 88.3±35.2) was 104.4±36.8, the “Number of small senile plaques, entorhinal cortex coronal cut surface” value [1, 3] was 96 and 78 and 110 and 164 and the “Number of small senile plaques, mammillary body coronal cut surface” value [1, 3] was 113 and 38 and 106 and 130. For the same molecule, the “Number of large-sized senile plaques, entorhinal cortex coronal cut surface” value [1, 4] was 16 and 10 and 11 and 2, the “Number of large-sized senile plaques, mammillary body coronal cut surface” value [1, 4] was 21 and 12 and 5 and the “Number of medium-sized senile plaques, entorhinal cortex coronal cut surface” value [1, 5] was 78 and 24 and 31 and 14. For the same molecule, the “Number of medium-sized senile plaques, mammillary body coronal cut surface” value [1, 5] was 33 and 12 and 25 and 30, the “Number of large-sized senile plaques compared with the control group” value ([1]; p=0.013, Mann-Whitney U test, 5 mg/kg oral daily, FIG. 7, 5 mg/kg) was “significantly smaller; also recorded: significantly suppresses; also recorded: especially suppressed” and the “Number of medium-sized senile plaques compared with the control group” value ([1]; p=0.036, Mann-Whitney U test, 5 mg/kg oral daily, FIG. 7, 5 mg/kg) was “significantly smaller; also recorded: significantly suppresses; also recorded: especially suppressed”. The “Number of small senile plaques compared with the control group” value ([1]; p=0.400, Mann-Whitney U test, 5 mg/kg oral daily, FIG. 7) was “Any significant difference was not observed”, the “Tangle number as percentage of that of the control group” value ([2]; FIG. 10, 5 mg/kg oral daily) was 36% and the “Number of nerve cells having AT8 immunostaining-positive neurofibrillary tangles per one cerebrum coronal cut surface” value ([2]; group average±standard deviation, 4 mice, 5 mg/kg oral daily about one year, control 209.9±46.0) was 77.0±67.1. The “Number of nerve cells having AT8 immunostaining-positive neurofibrillary tangles, amygdaloid nucleus maximum diameter coronal cut surface” value [2, 6] was 103 and 175 and 13 and 18, the “Number of nerve cells having AT8 immunostaining-positive neurofibrillary tangles, hypothalamus coronal cut surface” value [2, 6] was 149 and 119 and 26 and 13 and the “Number of nerve cells having AT8 immunostaining-positive neurofibrillary tangles compared with the control group” value ([2]; p=0.016, Mann-Whitney U test, amygdaloid nucleus and hypothalamus, 5 mg/kg oral daily, FIG. 9, 10, 5 mg/kg) was “significantly smaller; also recorded: markedly suppresses; also recorded: fewer; also recorded: significantly lower”.
